For 13 compounds, T/C results are on record in PubChem BioAssay AID328 (DTP/NCI, 2004).

SMILES strings stand for the structures. “And” between values parts separate entries of the source, which are not always exact repeats. Identical values can stand only once. Inconclusive results and toxic doses are left out.

This test deals with BDF1 mice, P388 leukemia ip, median survival T/C. Kind of test: NCI In Vivo Anticancer Drug Screen. Data for tumor model P388 Leukemia (intraperitoneal) in B6D2F1 (BDF1) mice. To be noted: endpoint: median survival time, higher = longer survival. In outline:
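Survival ratio, drug arm over vehicle arm, in mice with a transplanted tumour.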

[1] abbreviates: dose: 0.78 mg/kg/injection, schedule: Q01DX009 (ip), vehicle: water.
Where [2] appears, read: dose: 1.56 mg/kg/injection, schedule: Q01DX009 (ip), vehicle: water.
Setting [3] is: dose: 12.5 mg/kg/injection, schedule: Q01DX009 (ip), vehicle: water.
Setting [4] is: dose: 100.0 mg/kg/injection, schedule: Q01DX009 (ip), vehicle: saline with Tween-80.
Where [5] appears, read: dose: 100.0 mg/kg/injection, schedule: Q04DX003 (ip), vehicle: saline with Tween-80.
Where [6] appears, read: dose: 200.0 mg/kg/injection, schedule: Q01DX009 (ip), vehicle: saline with Tween-80.
[7] abbreviates: dose: 200.0 mg/kg/injection, schedule: Q04DX003 (ip), vehicle: saline with Tween-80.
Where [8] appears, read: dose: 400.0 mg/kg/injection, schedule: Q04DX003 (ip), vehicle: saline with Tween-80.
Where [9] appears, read: dose: 100.0 mg/kg/injection, schedule: Q04DX003 (ip), vehicle: saline.
Setting [10] is: dose: 50.0 mg/kg/injection, schedule: Q01DX009 (ip), vehicle: saline with Tween-80.

Regarding `CC(C)C(NC(=O)CN)C(=O)OCCCCS(=O)(=O)c1ccc(CO)cc1` (centres undefined), the T/C (dose: 50.0 mg/kg/injection, schedule: Q01DX005 (ip), vehicle: suspension in saline) is 100 % of control; the T/C (dose: 100.0 mg/kg/injection, schedule: Q01DX005 (ip), vehicle: suspension in saline) is 100 % of control; the T/C (dose: 200.0 mg/kg/injection, schedule: Q01DX005 (ip), vehicle: suspension in saline) is 95 % of control.

`COc1ccc(O)c(/C=C/c2cc[n+](C)cc2)c1`: the T/C (dose: 100.0 mg/kg/injection, schedule: Q04DX002 (ip), vehicle: saline with Tween-80) is 91 % of control and the T/C (dose: 200.0 mg/kg/injection, schedule: Q04DX002 (ip), vehicle: saline with Tween-80) was 97 % of control.

Regarding `O=[N+]([O-])/C=C\c1ccc2c(c1)OCO2`, the T/C reads like this: (dose: 25.0 mg/kg/injection, schedule: Q01DX009 (ip), vehicle: Klucel (hydroxypropylcellulose) (HPC)) 111 % of control and 120 % of control; (dose: 35.0 mg/kg/injection, schedule: Q01DX009 (ip), vehicle: Klucel (hydroxypropylcellulose) (HPC)) 105 % of control; (dose: 75.0 mg/kg/injection, schedule: Q01DX009 (ip), vehicle: Klucel (hydroxypropylcellulose) (HPC)) 95 % of control; (dose: 100.0 mg/kg/injection, schedule: Q01DX009 (ip), vehicle: Klucel (hydroxypropylcellulose) (HPC)) 100 % of control and 105 % of control; (dose: 100.0 mg/kg/injection, schedule: Q04DX003 (ip), vehicle: Klucel (hydroxypropylcellulose) (HPC)) 104 % of control; (dose: 200.0 mg/kg/injection, schedule: Q04DX003 (ip), vehicle: Klucel (hydroxypropylcellulose) (HPC)) 108 % of control.

With `CC(C)=CCC/C(C)=C/CN1C(=O)C=CC1=O`, the T/C was 94 % of control (dose: 0.39 mg/kg/injection, schedule: Q01DX009 (ip), vehicle: water); 100 % of control under setting [1]; 112 % of control under setting [2]; 112 % of control (dose: 3.12 mg/kg/injection, schedule: Q01DX009 (ip), vehicle: water); 111 % of control (dose: 6.25 mg/kg/injection, schedule: Q01DX009 (ip), vehicle: water); 89 % of control under setting [3].

Regarding `C[n+]1c(-c2ccc(Cl)c(Cl)c2)c2cc(N)ccc2c2ccccc21`, the T/C by setting is: under setting [1], 107 % of control; (dose: 0.78 mg/kg/injection, schedule: Q04DX003 (ip), vehicle: water) 100 % of control; under setting [2], 114 % of control; (dose: 1.56 mg/kg/injection, schedule: Q04DX003 (ip), vehicle: water) 100 % of control; (dose: 3.12 mg/kg/injection, schedule: Q04DX003 (ip), vehicle: water) 106 % of control; (dose: 6.25 mg/kg/injection, schedule: Q04DX003 (ip), vehicle: water) 106 % of control. Moreover, the T/C under setting [3] is 109 % of control.

Regarding `CCOC(=O)CN1C=C(C(=O)c2cc3ccccc3n2S(=O)(=O)c2ccccc2)CCC1`, the T/C is 104 % of control (dose: 0.05 mg/kg/injection, schedule: Q01DX009 (ip), vehicle: saline); 105 % of control and 115 % of control (dose: 0.06 mg/kg/injection, schedule: Q01DX009 (ip), vehicle: saline); 106 % of control (dose: 0.1 mg/kg/injection, schedule: Q01DX009 (ip), vehicle: saline); 150 % of control (dose: 0.12 mg/kg/injection, schedule: Q01DX009 (ip), vehicle: saline); 88 % of control (dose: 0.13 mg/kg/injection, schedule: Q01DX009 (ip), vehicle: saline); 114 % of control (dose: 0.2 mg/kg/injection, schedule: Q01DX009 (ip), vehicle: saline). Also, the T/C is 105 % of control and 110 % of control (dose: 0.25 mg/kg/injection, schedule: Q01DX009 (ip), vehicle: saline); 115 % of control (dose: 0.5 mg/kg/injection, schedule: Q01DX009 (ip), vehicle: saline); 100 % of control (dose: 1.0 mg/kg/injection, schedule: Q01DX009 (ip), vehicle: saline); 99 % of control and 105 % of control (dose: 2.0 mg/kg/injection, schedule: Q01DX009 (ip), vehicle: saline); 121 % of control (dose: 4.0 mg/kg/injection, schedule: Q01DX009 (ip), vehicle: saline); 104 % of control (dose: 8.0 mg/kg/injection, schedule: Q01DX009 (ip), vehicle: saline). In addition, the T/C runs as follows: (dose: 16.0 mg/kg/injection, schedule: Q01DX009 (ip), vehicle: saline) 109 % of control; (dose: 32.0 mg/kg/injection, schedule: Q01DX009 (ip), vehicle: saline) 106 % of control.

As for `O=c1cc(O)ccn1CC(O)c1ccc(Cl)s1` (centres undefined), the T/C was 101 % of control and 111 % of control under setting [4]; 109 % of control under setting [5]; 92 % of control and 104 % of control under setting [6]; 110 % of control under setting [7]; 108 % of control and 113 % of control (dose: 400.0 mg/kg/injection, schedule: Q01DX009 (ip), vehicle: saline with Tween-80); 119 % of control under setting [8].

Take `CO[C@@H](C=O)O[C@@H](C=O)CO`: the T/C was 120 % of control (dose: 6.25 mg/kg/injection, schedule: Q01DX009 (ip), vehicle: saline); 150 % of control (dose: 25.0 mg/kg/injection, schedule: Q01DX009 (ip), vehicle: saline); 150 % of control (dose: 50.0 mg/kg/injection, schedule: Q04DX003 (ip), vehicle: saline); 170 % of control (dose: 89.0 mg/kg/injection, schedule: Q04DX003 (ip), vehicle: saline); 160 % of control under setting [9]; 160 % of control (dose: 133.0 mg/kg/injection, schedule: Q04DX003 (ip), vehicle: saline). The T/C (dose: 200.0 mg/kg/injection, schedule: Q04DX003 (ip), vehicle: saline) is 175 % of control and 180 % of control.

With `CC(=O)OS(C)(=O)=O`, the T/C by setting is: (dose: 20.0 mg/kg/injection, schedule: Q04DX003 (ip), vehicle: saline) 100 % of control; (dose: 40.0 mg/kg/injection, schedule: Q04DX003 (ip), vehicle: saline) 95 % of control; (dose: 80.0 mg/kg/injection, schedule: Q04DX003 (ip), vehicle: saline) 104 % of control; under setting [9], 110 % of control.

For the compound `Nc1nc2nc(-c3ccccc3)nc(N)c2nc1Sc1ccc(Cl)cc1`, the T/C is, setting by setting: under setting [5], 94 % of control; under setting [7], 103 % of control; under setting [8], 103 % of control.

In the case of `NC(=O)c1ccc(N)nc1`, the T/C (dose: 6.25 mg/kg/injection, schedule: Q04DX003 (ip), vehicle: saline) was 121 % of control; the T/C (dose: 8.33 mg/kg/injection, schedule: Q04DX003 (ip), vehicle: saline with Tween-80) was 100 % of control; the T/C (dose: 12.5 mg/kg/injection, schedule: Q04DX003 (ip), vehicle: saline with Tween-80) is 100 % of control; the T/C (dose: 18.75 mg/kg/injection, schedule: Q04DX003 (ip), vehicle: saline with Tween-80) was 105 % of control and 108 % of control; the T/C (dose: 25.0 mg/kg/injection, schedule: Q04DX003 (ip), vehicle: saline) is 114 % of control.

With `O=C1Oc2ccccc2C(=O)/C1=C1\SSC(c2ccccc2)=C1c1ccccc1`, the T/C is 99 % of control under setting [10], 96 % of control under setting [4] and 96 % of control under setting [6].

As for `CC(C)COP(=O)(O)OCC(C)C.[Al]`, the T/C by setting is: under setting [10], 92 % of control; under setting [4], 94 % of control; under setting [6], 94 % of control.
